The source of these data is patent publication US5808100A, “Chromene compounds and photochromic materials” (Tokuyama Corporation, priority 1995, dated 1998).

Series [1] is described as follows: Durability T1/2 by xenon fadometer FAC-25AX-HC. The class given is physicochemical. The conditions noted are these: in polymer. The procedure: (§1) 0.05 Parts of the chromene compound obtained in Example 1 was added to 70 parts of a tetraethylene glycol dimethacrylate, 15 parts of a triethylene glycol dimethacrylate, 10 parts of a glycidyl methacrylate and 5 parts of a 2-hydroethyl methacrylate, and was mixed to a sufficient degree. The mixture solution was poured into a mold constituted by a glass plate and a gasket made from an ethylene/vinyl acetate copolymer and then polymerized. The polymerization was conducted by using an air furnace while gradually raising the temperature up to 30° C. to 90° C. over a period of 18 hours, the temperature being maintained at 90° C. for two hours. After the polymerization, the polymer was taken out from the glass mold.
(§2) Color fading rate [t1/2 ]: Time required by the polymer irradiated for 120 seconds until the absorbancy decreases down to one-half of [ε(120)-ε(0)]. Durability [T1/2 ]: Time required until the absorbency at the maximum absorption wavelength decreases down to 1/2 of the initial absorbency as measured by using a xenon fadometer FAC-25AX-HC manufactured by Suga Shikenki Co.
(§3) The photochromic polymers were obtained in the same manner as described above but using the compounds obtained in Examples 2 to 33 as chromene compounds. For the purpose of comparison, properties of the compounds represented by the following formulas (A), (B), (D) and (E) were also shown in Table 3. [drawing 110]

The nature of series [2]: Photochromic properties of polymer (2 mm thick) containing the chromene compound, xenon lamp irradiation 120 seconds. The following applies: for Color density ε(120)-ε(0): 120 seconds irradiation, 20° C.±1° C.; for Color density ε(120)-ε(0) / ε(0): absorbancy of the polymer not irradiated (initial color): at λmax; for Color fading rate t1/2: time until absorbancy decreases to one-half of [ε(120)-ε(0)]: after 120 seconds irradiation; for Maximum absorption wavelength λMax (developed color tone): polymer after developing color. Also noted: key to Color density ε(120)-ε(0): absorbance at λmax after 120 s irradiation minus before, ε(120)-ε(0). Type of series: physicochemical. The procedure: as §1
The obtained polymer (2 mm thick) was irradiated with light from a xenon lamp L-2480 (300 W) SHL-100 manufactured by Hamamatsu Photonics Co. through an Aero Mass filter (manufactured by Corning Co.) for 120 seconds under the conditions of 20° C.±1° C., beam intensities of 365 nm=2.4 mW/cm^2 and […]=24 μW/cm^2 on the polymer surface to develop color and to measure photochromic properties. The photochromic properties were expressed as described below.
Maximum absorption wavelength (λmax): λmax of the polymer after it has developed color was found by using a spectrophotometer (instantaneous multi-channel photodetector MCPD1000) manufactured by Otsuka Denshi Kogyo Co.
ε(120): Absorbancy of the polymer using light of a maximum absorption wavelength after it was irradiated under the above-mentioned conditions for 120 seconds.
ε(0): Absorbancy of the polymer that has not been irradiated using light of a wavelength same as the maximum absorption wavelength of light with which the polymer was irradiated.
ε(120)-ε(0): Color density
as §2, §3

Consider `Fc1ccsc1C1(c2ccc3ccccc3c2)C=Cc2c(ccc3ccccc23)O1` (stereo not shown) [Compound 18], for which the “Durability T1/2: time until absorbancy at maximum absorption wavelength decreases to 1/2 of the initial” value in series [1] was 21 days. In series [2], the “Color density ε(120)-ε(0)” value stood at 1.15, the “Color fading rate t1/2: time until absorbancy decreases to one-half of [ε(120)-ε(0)]” value was 0.000787 days, the “ε(0): absorbancy of the polymer not irradiated (initial color)” value was 0.04 and the “Maximum absorption wavelength λMax (developed color tone)” value stood at 456 nm.
As to `COc1cc2c(c3ccccc13)C=CC(c1cc(Cl)c3ccccc3c1)(c1cc3ccccc3s1)O2` (stereo not shown) [Compound 29], the “Durability T1/2: time until absorbancy at maximum absorption wavelength decreases to 1/2 of the initial” value in series [1] was determined as 20 days. In series [2], the “Color density ε(120)-ε(0)” value is 1.30, the “Color fading rate t1/2: time until absorbancy decreases to one-half of [ε(120)-ε(0)]” value is 0.000949 days, the “ε(0): absorbancy of the polymer not irradiated (initial color)” value turned out to be 0.12 and the “Maximum absorption wavelength λMax (developed color tone)” value amounted to 440 nm.
